Data reported in US9321756B2, “Azole compounds as PIM inhibitors” (priority 2011, dated 2016).
Read-outs that look alike come from different tables or passages of the source.

Assays:
[1] = target: full length recombinant Pim-2 (Homo sapiens (Human), UniProt Q9P1W9); assay: Pim enzyme assay (HTRF, phosphorylation of biotinylated-BAD (S112) peptide), Pim-2; type: biochemical; details: Pim-2 enzyme assay; read-out: Pim2_IC50
[2] = tested on: Pim-2 stably transfected U2OS human osteogenic sarcoma line; assay: Pim cell assay U2OS (phospho-BAD normalized against total BAD), Pim-2 transfected; type: cell-based; details: Homo sapiens, read-out: U2OS Pim2_Cell_IC50
[3] = target: full length recombinant Pim-1 (Homo sapiens (Human), UniProt P11309); assay: Pim enzyme assay (HTRF, phosphorylation of biotinylated-BAD (S112) peptide), Pim-1; type: biochemical
Sequence of full length recombinant Pim-1 (P11309 whole entry): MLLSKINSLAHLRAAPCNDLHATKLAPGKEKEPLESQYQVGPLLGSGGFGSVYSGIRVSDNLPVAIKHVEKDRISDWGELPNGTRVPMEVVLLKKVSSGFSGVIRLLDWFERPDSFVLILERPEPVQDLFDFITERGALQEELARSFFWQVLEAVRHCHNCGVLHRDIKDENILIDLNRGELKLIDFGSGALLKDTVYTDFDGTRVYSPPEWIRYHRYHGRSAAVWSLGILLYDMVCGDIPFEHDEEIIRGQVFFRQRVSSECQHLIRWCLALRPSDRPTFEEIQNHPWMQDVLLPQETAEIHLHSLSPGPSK

[4] = tested on: Pim-1 stably transfected U2OS human osteogenic sarcoma line; assay: Pim cell assay U2OS (phospho-BAD normalized against total BAD), Pim-1 transfected; type: cell-based; details: Homo sapiens, U2OS
[5] = target: full length recombinant Pim-3 (Homo sapiens (Human), UniProt Q86V86); assay: Pim enzyme assay (HTRF, phosphorylation of biotinylated-BAD (S112) peptide), Pim-3; type: biochemical; details: Pim-3 enzyme assay; read-out: Pim3 IC50
Procedure, shortened: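 IC50 values were fitted with a 4-parameter logistic model to percent-of-control HTRF signal (Eu anti-phospho-BAD S112 antibody/streptavidin-APC). Reactions used full-length Pim-3 and biotin-BAD (S112) peptide, ran 1 h 30 min at RT (22 °C) in Hepes pH 7.0 buffer with BSA and DTT, and were stopped by 3 mM EDTA.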

[6] = Pim-1 enzyme assay, read-out: Pim_1_IC50
[7] = read-out: U2OS Pim1_Cell_IC50, U2OS cells, Pim-1 transfected

Sequence of full length recombinant Pim-2 (Q9P1W9 whole entry): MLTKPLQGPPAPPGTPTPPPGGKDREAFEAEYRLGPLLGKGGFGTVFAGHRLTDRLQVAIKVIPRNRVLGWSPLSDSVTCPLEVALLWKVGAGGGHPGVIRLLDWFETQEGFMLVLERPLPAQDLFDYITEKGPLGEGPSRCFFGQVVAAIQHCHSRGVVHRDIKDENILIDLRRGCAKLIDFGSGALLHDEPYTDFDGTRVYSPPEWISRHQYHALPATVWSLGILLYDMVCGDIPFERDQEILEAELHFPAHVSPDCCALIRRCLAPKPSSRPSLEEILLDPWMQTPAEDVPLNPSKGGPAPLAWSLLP

Row | SMILES | IC50 [1] [nM] | IC50 [3, 6] [nM] | IC50 [5] [nM] | IC50 [3] [nM] | IC50 ([2]; U2OS cells, Pim-2 transfected) [nM] | IC50 [4, 7] [nM] | IC50 ([4]; read-out: U2OS Pim1_Cell_IC50) [nM] | IC50 ([2]; U2OS) [nM]
1 | Nc1nnc(-c2ccc3[nH]cc(-c4cncc(OC5CCCC5)n4)c3c2)s1 [Example 160, 5-(3-(6-(cyclopentyloxy)-2-pyrazinyl)-1H-indol-5-yl)-1,3,4-thiadiazol-2-amine] | 24.6 | 10.5 | 10.7 | – | 6540 | 176 | – | –
2 | CC1CCN(c2cncc(-c3c[nH]c4ccc(-c5nnc(N)s5)cc34)n2)CC1 [Example 162, 5-(3-(6-(4-methyl-1-piperidinyl)-2-pyrazinyl)-1H-indol-5-yl)-1,3,4-thiadiazol-2-amine] | 49.4 | 12.7 | 8.54 | – | 5680 | – | 214 | –
3 | Nc1nnc(-c2ccc3[nH]cc(-c4cccc(N5CCCC5=O)n4)c3c2)s1 [Example 166, 1-(6-(5-(5-amino-1,3,4-thiadiazol-2-yl)-1H-indol-3-yl)-2-pyridinyl)-2-pyrrolidinone] | 38.3 | 18.2 | 5.33 | – | > 31600 | – | > 31600 | –
4 | Cc1cn(-c2nc(-c3c[nH]c4ccc(-c5nnc(N)s5)cc34)cs2)cn1 [Example 170, 5-(3-(2-(4-methyl-1H-imidazol-1-yl)-1,3-thiazol-4-yl)-1H-indol-5-yl)-1,3,4-thiadiazol-2-amine] | 100 | 34.8 | 9.47 | – | > 31600 | – | 876 | –
5 | Nc1nnc(-c2ccc3[nH]cc(-c4csc(-n5ccccc5=O)n4)c3c2)s1 [Example 177, 1-(4-(5-(5-amino-1,3,4-thiadiazol-2-yl)-1H-indol-3-yl)-1,3-thiazol-2-yl)-2(1H)-pyridinone] | 91.2 | 45.8 | 30.5 | – | > 31600 | – | 538 | –
6 | Nc1nnc(-c2ccc3[nH]cc(-c4cncc(N5CCCCC5)n4)c3c2)s1 [Example 198, 5-(3-(6-(1-piperidinyl)-2-pyrazinyl)-1H-indol-5-yl)-1,3,4-thiadiazol-2-amine] | 10.9 | 2.51 | 2.79 | – | 1720 | 36.9 | – | –
7 | CC1(C)CNc2ncc(-c3c[nH]c4ccc(-c5nnc(N)s5)cc34)nc21 [Example 201, 5-(3-(7,7-dimethyl-6,7-dihydro-5H-pyrrolo[2,3-b]pyrazin-2-yl)-1H-indol-5-yl)-1,3,4-thiadiazol-2-amine] | 32.4 | 17.9 | 4.93 | – | 3830 | – | 387 | –
8 | Nc1nnc(-c2ccc3[nH]cc(-c4cncc(NCC5CC5)n4)c3c2)s1 [Example 207, 6-(5-(5-amino-1,3,4-thiadiazol-2-yl)-1H-indol-3-yl)-N-(cyclopropylmethyl)-2-pyrazinamine] | 7.71 | 1.77 | 1.68 | – | 1090 | – | 37.4 | –
9 | CC(Oc1cncc(-c2c[nH]c3ccc(-c4nnc(N)s4)cc23)n1)C(F)(F)F (stereo not drawn) [Example 211, 5-(3-(6-(2,2,2-trifluoro-1-methylethoxy)-2-pyrazinyl)-1H-indol-5-yl)-1,3,4-thiadiazol-2-amine] | 53.7 | 24.5 | 13.2 | – | 2800 | – | 192 | –

The next lines start with results.

Row | IC50 [1] [nM] | IC50 [3, 6] [nM] | IC50 [5] [nM] | IC50 [3] [nM] | SMILES | IC50 ([2]; U2OS cells, Pim-2 transfected) [nM] | IC50 [4, 7] [nM] | IC50 ([4]; read-out: U2OS Pim1_Cell_IC50) [nM] | IC50 ([2]; U2OS) [nM]
10 | 21.6 | 14.7 | 3.25 | – | CCOc1cccc(-c2c[nH]c3ccc(-c4nnc(N)s4)cc23)n1 [Example 164, 5-(3-(6-ethoxy-2-pyridinyl)-1H-indol-5-yl)-1,3,4-thiadiazol-2-amine] | 3730 | – | 141 | –
11 | 35.3 | 15.2 | 5.73 | – | CCCOc1cccc(-c2c[nH]c3ccc(-c4nnc(N)s4)cc23)n1 [Example 165, 5-(3-(6-propoxy-2-pyridinyl)-1H-indol-5-yl)-1,3,4-thiadiazol-2-amine] | 4230 | – | 231 | –
12 | 44.1 | 23.2 | 6.34 | – | COc1ccc(-c2c[nH]c3ccc(-c4nnc(N)s4)cc23)nc1OC [Example 168, 5-(3-(5,6-dimethoxy-2-pyridinyl)-1H-indol-5-yl)-1,3,4-thiadiazol-2-amine] | > 3160 | – | 111 | –
13 | 23.8 | 26.4 | 11.8 | – | Cc1nccn1-c1cccc(-c2c[nH]c3ccc(-c4nnc(N)s4)cc23)n1 [Example 169, 5-(3-(6-(2-methyl-1H-imidazol-1-yl)-2-pyridinyl)-1H-indol-5-yl)-1,3,4-thiadiazol-2-amine] | > 31600 | 1810 | – | –
14 | 58.3 | 36.6 | 13.9 | – | Nc1nnc(-c2ccc3[nH]cc(-c4ccc5cn[nH]c5c4)c3c2)s1 [Example 171, 5-(3-(1H-indazol-6-yl)-1H-indol-5-yl)-1,3,4-thiadiazol-2-amine] | > 31600 | 2660 | – | –
15 | 64.6 | 77 | 24.1 | – | Cc1ccn(-c2cccc(-c3c[nH]c4ccc(-c5nnc(N)s5)cc34)n2)n1 [Example 179, 5-(3-(6-(3-methyl-1H-pyrazol-1-yl)-2-pyridinyl)-1H-indol-5-yl)-1,3,4-thiadiazol-2-amine] | > 31600 | – | 816 | –
16 | 49.5 | 82.1 | 26.6 | – | Nc1nnc(-c2ccc3[nH]cc(-c4cccc(-n5cccn5)n4)c3c2)s1 [Example 180, 5-(3-(6-(1H-pyrazol-1-yl)-2-pyridinyl)-1H-indol-5-yl)-1,3,4-thiadiazol-2-amine] | 5460 | – | 926 | –
17 | 30.1 | 15.4 | 2.17 | – | COc1cc(-c2c[nH]c3ccc(-c4nnc(N)s4)cc23)nc(OC(C)C)n1 [Example 200, 5-(3-(6-methoxy-2-(1-methylethoxy)-4-pyrimidinyl)-1H-indol-5-yl)-1,3,4-thiadiazol-2-amine] | 3800 | – | 112 | –
18 | 87.5 | – | 11.1 | 73.2 | COc1cc(-c2c[nH]c3ccc(-c4nnc(N)s4)cc23)nc(OC)n1 [Example 202, 5-(3-(2,6-dimethoxy-4-pyrimidinyl)-1H-indol-5-yl)-1,3,4-thiadiazol-2-amine] | – | – | 238 | > 31600
19 | 37.2 | 20.9 | 5.42 | – | CC(C)Nc1cccc(-c2c[nH]c3ccc(-c4nnc(N)s4)cc23)n1 [Example 203, 6-(5-(5-amino-1,3,4-thiadiazol-2-yl)-1H-indol-3-yl)-N-(1-methylethyl)-2-pyridinamine] | 2190 | 384 | – | –
20 | 145 | 82.9 | 18.2 | – | Nc1nnc(-c2ccc3[nH]cc(-c4cccc(NCC5CC5)n4)c3c2)s1 [Example 204, 6-(5-(5-amino-1,3,4-thiadiazol-2-yl)-1H-indol-3-yl)-N-(cyclopropylmethyl)-2-pyridinamine] | 7720 | – | 466 | –
21 | 30.2 | 38.3 | 14.9 | – | COc1cncc(-c2c[nH]c3ccc(-c4nnc(N)s4)cc23)n1 [Example 212, 5-(3-(6-methoxy-2-pyrazinyl)-1H-indol-5-yl)-1,3,4-thiadiazol-2-amine] | > 31600 | – | 177 | –
